Columns and labels:
[1] = system: Primary patient-derived B-ALL cells (BLQ5, LAX56, and LAX7R); assay: Proliferation of GFP-labeled B-ALL cells on OP9 cells (Incucyte green fluorescence); format: cell-based, human
Procedure: (§1) Lentivirally green fluorescence protein (GFP) labeled patient-derived B-ALL cells (LAX56, BLQ5, LAX7R) or mature B cell lines 3301015 and 5680001 were plated on irradiated murine stromal OP9 cells and treated with four compounds optimized for Artemis inhibition (827171, 827032, 826941, 825226) (provided by Curia Global Inc., as part of the NCI NExT Program). These compounds ranged in KD binding affinity to Artemis from 20 to 150 nM. […] Proliferation was determined by measuring the green fluorescence intensity per image (9 images were captured per well) by Incucyte every 8 h for 3 days. Raw values were normalized to the zero-time DMSO control. On day 3, viability of the treated cells was determined by annexin V/DAPI staining via flow cytometry.
Based on these viability studies, we next tested the compounds for their effect on proliferation. […] Ideally, normal B-cell lines would continue to proliferate upon Artemis inhibition and only B-ALL cell lines would be inhibited due to chromosome breaks. […] Increasing green fluorescence intensity is indicative of proliferation as measured by Incucyte every 8 h. […]
Primary B-ALL cells (BLQ5, LAX56, and LAX7R) were transduced with GFP, and 100,000 cells were plated in 24-well plates seeded with irradiated OP9 cells. […] Green fluorescence intensity was measured by Incucyte every 8 h. […]

[2] = system: patient-derived B-ALL cells (BLQ5, LAX56 and LAX7R); assay: Viability of B-ALL cells by annexin V/DAPI flow cytometry, day 3; format: cell-based, human; conditions: all three B-ALL cells (BLQ5, LAX56, LAX7R), 3 days
Procedure: as §1
On day three, primary B-ALL cells were collected and used for flow cytometry analysis with PE Annexin V and DAPI to measure % viability (PE Annexin V-/DAPI-). The statistical analysis of viability differences is compared to DMSO control: ns: non-significant; *p < 0.05; **p < 0.001; ***p < 0.0001, one-way ANOVA.

[3] = system: Mature B cell lines (3301015 and 5680001); assay: Proliferation of GFP-labeled mature B cell lines on OP9 cells (Incucyte green fluorescence); format: cell-based, human
Procedure: as §1
Based on these viability studies, we next tested the compounds for their effect on proliferation. […] Ideally, normal B-cell lines would continue to proliferate upon Artemis inhibition and only B-ALL cell lines would be inhibited due to chromosome breaks. Primary patient-derived B-ALL cells (BLQ5, LAX56, and LAX7R) were transduced with GFP and 100,000 cells were plated in 24-well plates seeded with irradiated OP9 cells. Increasing green fluorescence intensity is indicative of proliferation as measured by Incucyte every 8 h. […] The mature B cell line proliferation is slow enough that it appears relatively flat in the proliferation assays, but the cells do increase in number (Supplementary Figure S2). Compared to B-ALL cells which grow as single cells (Supplementary Figure S3A–F), the mature B-cell lines grow in clusters and the measurement of total intensity per image is a potential caveat and may not capture this growth (Supplementary Figure S3G–J).
Mature B cell lines (3301015 and 5680001) were transduced with GFP, and 100,000 cells were plated in 24-well plates seeded with irradiated OP9 cells. […] Green fluorescence intensity was measured by Incucyte every 8 h. Raw values were normalized to the 0 h DMSO control. The dashed lines indicate the mean of the final time point measurements of the DMSO control for each mature B cell line.

[4] = system: Normal mature B cell lines 3301015 and 5680001; assay: Viability of normal mature B cell lines by annexin V/DAPI flow cytometry, day 3; format: cell-based, human; conditions: one or both B-cell lines, 1–20 μM, 3 days
Procedure: Normal mature human B cell lines, immortalized lymphoblastoid cell lines 3301015 and 5680001, were generated using EBV-transformation of peripheral blood from patients with no hematopoietic abnormalities.
as §1
FIGURE 4 Artemis inhibitors and DNA-PK inhibitors effect on viability of normal mature B cell lines. […] On day three, mature B cells were collected and used for flow cytometry analysis with PE Annexin V and DAPI to measure % viability (PE Annexin V-/DAPI-). The % viability (Ann V-/DAPI-) is depicted. […]

[5] = target: T1, purified full-length human Artemis with DNA-PKcs (Homo sapiens, UniProt Q96SD1); assay: Biochemical Artemis catalytic activity assay (FAM hairpin DNA cleavage, fluorescence)
T1 construct: Artemis activity assay was developed using full length Artemis with DNA-PKcs; made in house
T1 sequence (Q96SD1 whole entry): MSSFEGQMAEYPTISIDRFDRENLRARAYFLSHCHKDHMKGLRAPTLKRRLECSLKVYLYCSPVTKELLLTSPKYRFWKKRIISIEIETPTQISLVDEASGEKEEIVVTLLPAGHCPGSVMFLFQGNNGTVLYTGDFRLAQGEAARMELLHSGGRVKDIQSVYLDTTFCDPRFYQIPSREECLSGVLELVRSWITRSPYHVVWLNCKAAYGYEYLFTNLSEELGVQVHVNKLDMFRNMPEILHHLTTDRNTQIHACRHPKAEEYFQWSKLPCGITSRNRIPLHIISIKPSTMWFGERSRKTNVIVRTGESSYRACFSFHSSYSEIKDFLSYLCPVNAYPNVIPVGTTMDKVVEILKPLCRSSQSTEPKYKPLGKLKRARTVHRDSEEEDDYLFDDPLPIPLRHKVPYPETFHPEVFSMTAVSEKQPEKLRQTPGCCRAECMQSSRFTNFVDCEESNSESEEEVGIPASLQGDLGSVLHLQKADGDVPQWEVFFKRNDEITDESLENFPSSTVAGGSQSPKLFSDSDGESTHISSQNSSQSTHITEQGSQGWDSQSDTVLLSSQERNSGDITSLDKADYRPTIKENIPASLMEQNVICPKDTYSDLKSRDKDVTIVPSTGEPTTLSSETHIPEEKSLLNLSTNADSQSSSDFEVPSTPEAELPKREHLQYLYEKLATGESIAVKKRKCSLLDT
T1 sequence (P78527 whole entry partner): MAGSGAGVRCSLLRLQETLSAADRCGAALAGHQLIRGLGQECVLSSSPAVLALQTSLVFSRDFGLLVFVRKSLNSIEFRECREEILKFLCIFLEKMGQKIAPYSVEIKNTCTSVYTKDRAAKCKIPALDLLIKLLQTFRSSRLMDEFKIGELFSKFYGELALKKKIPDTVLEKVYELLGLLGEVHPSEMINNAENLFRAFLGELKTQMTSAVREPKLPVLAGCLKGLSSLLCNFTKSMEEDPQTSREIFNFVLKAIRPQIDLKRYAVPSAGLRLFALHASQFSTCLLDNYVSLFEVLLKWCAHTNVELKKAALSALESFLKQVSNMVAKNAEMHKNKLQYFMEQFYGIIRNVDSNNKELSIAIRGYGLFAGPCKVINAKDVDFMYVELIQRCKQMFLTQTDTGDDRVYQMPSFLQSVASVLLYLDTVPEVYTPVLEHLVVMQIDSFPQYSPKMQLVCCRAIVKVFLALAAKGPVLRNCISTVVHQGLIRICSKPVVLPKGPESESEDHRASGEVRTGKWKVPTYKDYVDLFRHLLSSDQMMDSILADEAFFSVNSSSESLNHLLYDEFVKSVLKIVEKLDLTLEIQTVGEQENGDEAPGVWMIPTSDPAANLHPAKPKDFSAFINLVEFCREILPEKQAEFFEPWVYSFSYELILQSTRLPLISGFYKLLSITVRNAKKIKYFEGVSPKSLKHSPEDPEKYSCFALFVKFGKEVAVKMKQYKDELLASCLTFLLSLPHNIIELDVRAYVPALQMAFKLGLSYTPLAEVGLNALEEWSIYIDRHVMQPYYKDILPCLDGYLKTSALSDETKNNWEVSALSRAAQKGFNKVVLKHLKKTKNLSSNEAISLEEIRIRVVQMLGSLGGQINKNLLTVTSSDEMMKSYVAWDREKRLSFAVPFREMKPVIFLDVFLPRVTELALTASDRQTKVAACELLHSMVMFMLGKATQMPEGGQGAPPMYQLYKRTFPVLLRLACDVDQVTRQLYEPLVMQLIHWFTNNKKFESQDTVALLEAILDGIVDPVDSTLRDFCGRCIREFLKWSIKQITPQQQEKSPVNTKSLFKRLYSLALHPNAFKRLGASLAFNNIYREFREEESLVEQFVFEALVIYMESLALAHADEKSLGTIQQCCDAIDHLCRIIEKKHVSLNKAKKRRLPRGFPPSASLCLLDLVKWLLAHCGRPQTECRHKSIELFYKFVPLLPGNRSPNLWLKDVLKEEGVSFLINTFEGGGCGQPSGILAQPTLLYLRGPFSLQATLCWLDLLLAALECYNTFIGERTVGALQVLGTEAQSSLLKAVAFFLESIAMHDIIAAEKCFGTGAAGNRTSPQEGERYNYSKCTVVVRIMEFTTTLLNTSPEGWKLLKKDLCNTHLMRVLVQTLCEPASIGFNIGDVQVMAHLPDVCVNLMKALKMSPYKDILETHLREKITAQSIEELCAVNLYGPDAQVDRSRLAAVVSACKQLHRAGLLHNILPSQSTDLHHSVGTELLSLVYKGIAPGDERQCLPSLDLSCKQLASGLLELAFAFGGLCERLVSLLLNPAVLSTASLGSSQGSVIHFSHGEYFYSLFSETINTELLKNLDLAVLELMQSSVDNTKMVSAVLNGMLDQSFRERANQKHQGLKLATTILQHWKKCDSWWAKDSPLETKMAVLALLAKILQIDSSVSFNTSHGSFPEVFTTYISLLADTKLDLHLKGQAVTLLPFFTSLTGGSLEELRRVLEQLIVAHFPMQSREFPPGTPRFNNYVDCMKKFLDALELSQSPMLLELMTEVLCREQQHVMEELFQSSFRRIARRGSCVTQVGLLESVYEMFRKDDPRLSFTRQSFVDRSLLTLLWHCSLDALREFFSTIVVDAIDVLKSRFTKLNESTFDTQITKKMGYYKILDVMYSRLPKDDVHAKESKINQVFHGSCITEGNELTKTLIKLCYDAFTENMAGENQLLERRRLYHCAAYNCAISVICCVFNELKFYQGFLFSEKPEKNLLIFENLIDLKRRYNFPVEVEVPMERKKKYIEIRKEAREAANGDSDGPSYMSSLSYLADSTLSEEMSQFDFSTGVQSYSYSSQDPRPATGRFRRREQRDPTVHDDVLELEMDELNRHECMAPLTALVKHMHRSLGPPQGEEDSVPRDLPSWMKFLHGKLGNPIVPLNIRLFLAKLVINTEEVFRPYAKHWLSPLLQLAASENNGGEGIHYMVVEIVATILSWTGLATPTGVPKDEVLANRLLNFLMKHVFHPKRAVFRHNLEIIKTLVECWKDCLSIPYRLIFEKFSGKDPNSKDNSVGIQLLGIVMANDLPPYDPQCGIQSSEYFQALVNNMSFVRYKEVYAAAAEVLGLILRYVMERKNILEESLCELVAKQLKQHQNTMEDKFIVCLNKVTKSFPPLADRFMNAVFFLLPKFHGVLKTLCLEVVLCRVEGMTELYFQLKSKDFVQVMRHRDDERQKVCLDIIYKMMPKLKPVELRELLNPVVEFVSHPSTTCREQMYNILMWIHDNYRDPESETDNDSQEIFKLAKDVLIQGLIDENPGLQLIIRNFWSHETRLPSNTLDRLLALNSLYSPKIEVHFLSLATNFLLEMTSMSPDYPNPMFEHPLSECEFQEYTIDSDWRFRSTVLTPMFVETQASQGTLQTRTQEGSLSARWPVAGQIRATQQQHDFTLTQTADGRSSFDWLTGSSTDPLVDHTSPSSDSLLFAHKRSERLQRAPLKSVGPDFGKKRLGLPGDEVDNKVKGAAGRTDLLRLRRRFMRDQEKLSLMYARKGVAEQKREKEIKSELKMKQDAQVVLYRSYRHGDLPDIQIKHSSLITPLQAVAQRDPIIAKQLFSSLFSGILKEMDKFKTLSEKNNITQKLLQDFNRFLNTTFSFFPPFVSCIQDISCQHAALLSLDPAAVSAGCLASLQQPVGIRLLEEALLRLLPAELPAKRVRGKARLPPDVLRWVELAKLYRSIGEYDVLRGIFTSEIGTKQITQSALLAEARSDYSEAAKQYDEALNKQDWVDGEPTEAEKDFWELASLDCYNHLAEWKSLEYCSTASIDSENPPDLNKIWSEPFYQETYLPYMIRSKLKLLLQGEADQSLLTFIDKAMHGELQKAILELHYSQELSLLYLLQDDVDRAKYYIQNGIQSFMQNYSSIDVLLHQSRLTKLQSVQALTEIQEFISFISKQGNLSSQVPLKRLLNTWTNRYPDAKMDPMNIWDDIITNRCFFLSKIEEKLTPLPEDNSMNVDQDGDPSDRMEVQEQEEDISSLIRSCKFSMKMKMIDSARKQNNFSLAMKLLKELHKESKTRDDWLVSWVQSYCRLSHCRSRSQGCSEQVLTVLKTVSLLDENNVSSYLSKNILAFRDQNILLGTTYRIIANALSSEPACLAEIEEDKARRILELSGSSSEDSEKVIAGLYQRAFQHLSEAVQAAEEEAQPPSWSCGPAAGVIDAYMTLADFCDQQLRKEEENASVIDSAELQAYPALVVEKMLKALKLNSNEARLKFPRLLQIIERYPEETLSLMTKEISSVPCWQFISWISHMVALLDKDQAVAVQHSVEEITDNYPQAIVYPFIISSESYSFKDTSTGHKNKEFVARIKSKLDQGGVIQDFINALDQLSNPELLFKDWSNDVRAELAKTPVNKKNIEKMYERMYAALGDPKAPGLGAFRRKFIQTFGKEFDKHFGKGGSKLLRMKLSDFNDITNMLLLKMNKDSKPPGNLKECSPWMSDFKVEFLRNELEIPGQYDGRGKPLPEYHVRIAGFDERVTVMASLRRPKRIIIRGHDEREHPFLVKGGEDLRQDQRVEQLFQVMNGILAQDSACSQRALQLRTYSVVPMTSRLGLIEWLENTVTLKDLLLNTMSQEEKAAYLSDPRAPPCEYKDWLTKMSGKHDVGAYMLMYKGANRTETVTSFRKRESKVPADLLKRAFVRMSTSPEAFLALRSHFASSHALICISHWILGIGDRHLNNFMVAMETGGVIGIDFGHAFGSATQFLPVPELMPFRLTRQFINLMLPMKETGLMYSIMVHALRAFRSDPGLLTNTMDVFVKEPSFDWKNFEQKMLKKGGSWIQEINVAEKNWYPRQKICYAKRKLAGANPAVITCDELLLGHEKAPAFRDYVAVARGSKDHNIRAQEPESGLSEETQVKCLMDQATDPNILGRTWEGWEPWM
Procedure: Artemis activity assay was developed using full length Artemis with DNA-PKcs to generate a fluorescent signal from the cleavage of the 5′ 6-FAM modified end of hairpin DNA with a black-hole quencher (3-BHQ) on the 3’ end. The assay buffer used was 25 mM MOPS, pH 7.5, 10 mM MgCl2, 10 mM KCl, 10 μM ATP, 1 mM DTT, 0.05% (w/v) CHAPS with 5 nM FL-Artemis, 5 nM DNA-PKcs, and 200 nM DNA FAM hairpin substrate. The fluorescence signal was monitored kinetically on a Perkin Elmer Envision microplate reader with FITC filters (λ ex = 485 nm, λ em = 520 nm) with 1-min reads for 40 min.
We determined the specificity of the four Artemis inhibiting compounds using a biochemical Artemis activity assay which generates a fluorescent signal from the cleavage of the 5′ 6-FAM modified end of hairpin DNA with a black-hole quencher (3-BHQ) on the 3’ end.
Steps 1, 2, and 3 show the fluorescence assay for cutting of the DNA hairpin substrate by Artems:DNA-Kcs. Artemis activity assay was optimized for development of a fluorescent signal from the cleavage of the 6-FAM modified end of hairpin DNA (to release it from proximity to the BHQ quenching) and monitored kinetically on a Perkin Elmer Envision microplate reader with FITC filters (excitation wavelength = 485 nm, emission wavelength = 520 nm). […]

| IC50 ([5]; 5 nM FL-Artemis, 5 nM DNA-PKcs, 200 nM DNA FAM hairpin substrate, 10 μM ATP, 10-point concentration response) [nM] | %Inh at Max ([5]; percent inhibition at maximal tested concentration) [%] | SMILES | proliferation (normalized green fluorescence intensity) vs DMSO ([1]; B-ALL cell lines, 5 μM and 10 μM) | proliferation of the three B-ALL lines (Discussion summary) ([1]; three B-ALL lines, 827171 at 1, 5, and 10 µM) | viability (PE Annexin V-/DAPI-) compared to DMSO controls [2] | proliferation (normalized green fluorescence intensity) vs DMSO ([3]; 3301015, 5 μM and 10 µM) | proliferation (normalized green fluorescence intensity) vs DMSO [3]; 5680001 | proliferation (normalized green fluorescence intensity) vs DMSO ([3]; 5680001, 1 or 5 μM) | viability (PE Annexin V-/DAPI-) [4] |
| --- | --- | --- | --- | --- | --- | --- | --- | --- | --- |
| – | – | Cc1cc2ncnn2cc1Nc1ncc2c(n1)n(C1CCOCC1)c(=O)n2C [AZD7648] | inhibited the proliferation | little inhibition | decrease in viability | suppressed proliferation | no significant decreases in proliferation | minor increase in proliferation | decrease viability of one or both B-cell lines |
| 3 | 90.2 | COc1ccc([C@@H](O)c2cc(-c3ncnc4cc(N5CCOCC5)ccc34)c(F)cc2Cl)nn1 [M3814] | – | – | – | – | – | – | – |
